Experimental data as given in patent publication US10376584B2, “Stable pharmaceutical formulations of methylnaltrexone” (Progenics Pharmaceuticals, Inc., priority 2003, dated 2019).

Assay: Autoclaving of methylnaltrexone solutions (122° C., 15 lbs. pressure for 20 min), degradation products
Type: physicochemical
Procedure: Applicants have discovered that during the autoclaving process, methylnaltrexone in aqueous solution tends to degrade to a surprising extent. The amount of degradation resulting from simple autoclaving (122° C., 15 lbs. pressure for 20 min.) can be as high as […]. The degradation products are depicted in FIG. 1, and appear to include at least two predominant degradants having relative retention times (RRT) of 0.72 (2.828 minutes) and 0.89 (3.435 minutes) and, with other minor forms as can be observed. The degradant identified by the 0.72 RRT peak appears in small amounts, 0.074, immediately upon dissolving the methylnaltrexone into solution and increases overtime with storage or autoclaving 0.25%. The degradant identified by the 0.89 RRT peak appears only after storage over time or after autoclaving (<0.05% and 0.724%, respectively). Applicants also have discovered that methylnaltrexone is unstable in aqueous solutions when stored at room temperature or even at 4° C. for significant (but commercially necessary) periods of time such as 6 months, 12 months or even two years. Degradation occurs without regard to whether the aqueous solution was previously autoclaved or filter sterilized. It would be desirable to stabilize formulations of methylnaltrexone such that following the autoclaving process or following storage (or both autoclaving and storage), the amount of the total degradation products would be less than 2.0%, 1.5%, 1.0%, 0.5%, 0.25%, and even 0.125%.
The invention provides stable formulations of methylnaltrexone. By stable solutions of methylnaltrexone, it is meant that following autoclaving at 122° C., 15 lbs. pressure for 20 minutes, the methylnaltrexone degradation products resulting from such conditions are not more than 2% of the total methylnaltrexone present in a given solution. […]

Question: Which results are given for C[N@+]1(CC2CC2)CC[C@]23c4c5ccc(O)c4O[C@H]2C(=O)CC[C@@]3(O)[C@H]1C5 [methylnaltrexone]?
Answer: levels of degradation products after autoclaving with buffering agents (buffers in concentrations ranging from 0.25 mM to 25 mM): Acceptable levels of degradation products; stability to autoclaving by adjustment of pH alone (pH between 4.25 and 6): not sufficient to produce stable formulations; pH of the autoclaved sample (pH set between 3.0 and 6.0 with pH-adjusting acid or base prior to autoclaving, no buffer): about 7.0
